The results in this text go back to patent US20110288033A1, “Disulfide Compounds for Phototherapy” (Mallinckrodt Inc., priority 2010, published 2011).

The test system of data set [1] is human myeloid leukemia U937 cell line. The format is cell-based. The following applies: 0, 2.5, 5 and 10 μM; light 0, 10, 20 minutes. Here is the method: A general procedure is carried out for measuring cell viability upon exposure of cancer cells to a disulfide photosensitizer and light. The disulfide photosensitizer evaluated is a commercially available compound having formula (FX13): […]
Compound (FX13) was purchased from Sigma-Aldrich (Cat #158194). […] Preparation of compound (FX13) is known and can be found, for example, in Rath, C. Derivatives of pyridine. XII. Mercaptans and sulfonic acids of pyridine. Justus Liebigs Annalen der Chemie 1931, 487, 105-119, which is hereby incorporated by reference. Some properties of compound (FX13) are known and can be found, for example, in Grassetti, D. R.; Brokke, M. E.; Murray, J. F., Jr. The effect of some sulfur-containing pyridine derivatives on the carbohydrate metabolism of ehrlich ascites tumor. J. Med. Chem. 1965, 8, 753-756, which is hereby incorporated by reference. The cell viability analysis is carried out using a human myeloid leukemia U937 cell line by the standard WST-1 assay. […]
The disulfide photosensitizer is dissolved in DMSO at an initial concentration of about 8 mM and diluted with water to the final desired value such that amount of DMSO exposed to the cells is kept […]. […] The viability of cells is assessed after 24 hours following light exposure. […] The number of viable cells is determined and percent viability is determined: […]

A short description of data set [2]: UV spectrum in DMSO. In kind it is physicochemical.

The structures appear in SMILES notation.

Consider `O=[N+]([O-])c1ccc(SSc2ccc([N+](=O)[O-])cn2)nc1` [FX13], for which the “change in cell viability with photosensitizer and light (FIG. 5)” value in data set [1] was “concentration-dependent and light exposure time-dependent decrease in cell viability”. Further, in data set [2], the “absorption λmax” value worked out at 323 nm.
